Consider five compounds from PMC6044503 (ACS Omega, 2017).

The nature of series [1]: Pharmacokinetics of PYY analogues in mice. The note with it: C57BL/6J, mouse, plasma, 1 mg/kg. It is filed as in vivo.
The nature of series [2]: Stability in 20% mouse serum/PBS. It is filed as in vitro ADME. Particulars: mouse, 20% mouse serum in PBS.
The target of series [3] is T1, human Y2R (Homo sapiens, UniProt P49146).
T1 sequence (P49146 1-381): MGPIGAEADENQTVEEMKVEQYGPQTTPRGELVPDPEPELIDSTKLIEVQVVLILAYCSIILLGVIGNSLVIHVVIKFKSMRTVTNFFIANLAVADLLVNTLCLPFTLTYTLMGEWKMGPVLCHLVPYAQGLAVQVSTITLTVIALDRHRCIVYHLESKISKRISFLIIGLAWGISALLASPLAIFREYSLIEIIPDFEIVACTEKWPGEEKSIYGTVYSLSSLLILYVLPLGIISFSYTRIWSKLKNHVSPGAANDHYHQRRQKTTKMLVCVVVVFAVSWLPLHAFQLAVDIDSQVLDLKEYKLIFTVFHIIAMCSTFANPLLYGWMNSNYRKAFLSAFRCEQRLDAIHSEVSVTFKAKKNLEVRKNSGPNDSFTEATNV
In words: biochemical. It is filed as biochemical.

Another series has as its system male C57BL/6J mice. Description: Food intake assay, bolus ip administration in lean mice. Particulars: 3 h after administration, vs saline, mean ± SD. It is filed as in vivo, mouse.
In series [4] the target is T1, human Y2R. Description: biochemical. It is filed as binding.

Each structure is given as a SMILES string. pEC50, pIC50: −log10 of the molar value. Where a SMILES comes first, the peptide text is derived from it. [ ]: non-standard residue; d: D form. The star is where a group is joined. 2Nal = N[C@@H](Cc1ccc2ccccc2c1)C(=O)O; Cha = N[C@@H](CC1CCCCC1)C(=O)O; Aib = CC(C)(N)C(=O)O; Bz = O=C(c1ccccc1)*

Broadly, the Cmax is the highest concentration seen after dosing. One may read the MRT as a mean duration of stay, worked out from the concentration-time curve. The term Tmax denotes the time from dosing to the highest level. In general, bioavailability refers to dose-corrected exposure relative to a reference, in per cent. For orientation: Vd means the apparent volume that relates the amount in the body to the concentration in plasma or blood. A low value points to little distribution into tissue. A word on the clearance: it is a measure of how efficiently the substance is removed, as volume per time. The low end stands for inefficient removal, the high end for efficient removal. As for `CC(C)C[C@H](NC(=O)[C@H](CC(N)=O)NC(=O)[C@H](CC1CCCCC1)NC(=O)[C@H](CC1CCCCC1)NC(=O)[C@H](Cc1cnc[nH]1)NC(=O)[C@H](CCCNC(=N)N)NC(=O)c1ccccc1)C(=O)NC(C)(C)C(=O)N[C@H](C(=O)N[C@@H](CCCNC(=N)N)C(=O)N[C@@H](CCC(N)=O)C(=O)N[C@@H](CCCNC(=N)N)C(=O)N[C@@H](CC1CCCCC1)C(N)=O)[C@@H](C)O` [Compound 21, benzoyl-[Cha^27,28,36,Aib^31]PYY(25–36)] (Bz-RH[Cha][Cha]NL[Aib]TRQR[Cha]-NH2), in series [1] (ip), the maximum concentration (Cmax) came to 406 nM, the MRT stood at 75 min, the Tmax worked out at 15 min and the bioavailability is 6.8%. In series [1] (iv), this compound showed an MRT of 27 min, a Vd of 0.073 L/kg and a clearance of 2.7 mL/min/kg.
As a reminder, the amount remaining is the share of the starting amount still present when the sample was taken. As a reminder, the pEC50 is the negative decadic logarithm of the EC50, by convention in mol/L. Read a low pEC50 as a high EC50. Usually pIC50 stands for the negative decadic logarithm of the IC50, by convention in mol/L. Low values mean a high IC50, high ones a low IC50. In the case of `CC[C@H](C)[C@H](NC(=O)[C@H](Cc1ccc2ccccc2c1)NC(=O)[C@H](Cc1c[nH]cn1)NC(=O)[C@H](CCCNC(=N)N)NC(=O)c1ccccc1)C(=O)N[C@@H](CC(N)=O)C(=O)N[C@@H](Cc1c[nH]c2ccccc12)C(=O)N[C@H](C(=O)N[C@H](C(=O)N[C@@H](CCCNC(=N)N)C(=O)N[C@@H](CCC(N)=O)C(=O)N[C@@H](CCCNC(=N)N)C(=O)N[C@@H](CC1CCCCC1)C(N)=O)[C@@H](C)O)[C@@H](C)CC` [Compound 15] (Bz-RH[2Nal]INWITRQR[Cha]-NH2), the fraction remaining at 0.5 h in series [2] was found to be 100%. The compound further showed a pEC50 on human Y2R [3] of 8.14. For the same compound, the “% food intake inhibition” value in the series with male C57BL/6J mice (bolus ip 500 nmol/kg) is 19 ± 7%. Besides, the pIC50 on human Y2R [4] was 7.72.
Consider `CC[C@H](C)[C@H](NC(=O)[C@H](CC1CCCCC1)NC(=O)[C@H](Cc1c[nH]cn1)NC(=O)[C@H](CCCNC(=N)N)NC(=O)c1ccccc1)C(=O)N[C@@H](CC(N)=O)C(=O)N[C@@H](Cc1c[nH]c2ccccc12)C(=O)NC(C)(C)C(=O)N[C@H](C(=O)N[C@@H](CCCNC(=N)N)C(=O)N[C@@H](CCC(N)=O)C(=O)N[C@@H](CCCNC(=N)N)C(=O)N[C@@H](CC1CCCCC1)C(N)=O)[C@@H](C)O` [Compound 11] (Bz-RH[Cha]INW[Aib]TRQR[Cha]-NH2), for which, in series [2], the share remaining at 0.5 h is 95%. The compound also had a pEC50 at human Y2R [3] of 8.62. Besides, the “% food intake inhibition” value with male C57BL/6J mice (bolus ip 500 nmol/kg) was 12 ± 3%; in the series on male C57BL/6J mice (bolus ip 1000 nmol/kg), 36 ± 8%; in the series with male C57BL/6J mice (bolus ip 2000 nmol/kg), 52 ± 5%. At human Y2R [4], this compound gave a negative logarithm of the IC50 (pIC50) of 7.96.
For `CC[C@H](C)[C@H](NC(=O)[C@H](Cc1ccc(O)cc1)NC(=O)[C@H](C)NC(=O)[C@H](CCCNC(=N)N)NC(=O)c1ccccc1)C(=O)N[C@@H](CC(N)=O)C(=O)N[C@@H](CC(C)C)C(=O)N[C@H](C(=O)N[C@H](C(=O)N[C@@H](CCCNC(=N)N)C(=O)N[C@@H](CCC(N)=O)C(=O)N[C@@H](CCCNC(=N)N)C(=O)N[C@@H](CC1CCCCC1)C(N)=O)[C@@H](C)O)[C@@H](C)CC` [Compound 2] (Bz-RAYINLITRQR[Cha]-NH2), the amount remaining at 0.5 h in series [2] amounted to 53%. Besides, the pEC50 at human Y2R [3] was 8.96. For the same compound, in the series on male C57BL/6J mice (bolus ip 2000 nmol/kg), the “% food intake inhibition” value is listed as 21 ± 5%. The pIC50 against human Y2R [4] is 8.49.
On to `CC[C@H](C)[C@H](NC(=O)[C@H](Cc1ccc(O)cc1)NC(=O)[C@H](C)NC(=O)[C@H](CCCNC(=N)N)NC(=O)c1ccccc1)C(=O)N[C@@H](CC(N)=O)C(=O)N[C@@H](CC(C)C)C(=O)N[C@H](C(=O)N[C@H](C(=O)N[C@@H](CCCNC(=N)N)C(=O)N[C@@H](CCC(N)=O)C(=O)N[C@@H](CCCNC(=N)N)C(=O)N[C@@H](Cc1ccc(O)cc1)C(N)=O)[C@@H](C)O)[C@@H](C)CC` [Compound 1, benzoyl-[Ala^26,Ile^28,31]PYY(25–36)] (Bz-RAYINLITRQRY-NH2), for which the amount remaining at 0.5 h in series [2] worked out at 5%. Besides, the pEC50 at human Y2R [3] was 8.77. For the same compound, the “% food intake inhibition” value in the series on male C57BL/6J mice (bolus ip 2000 nmol/kg) is 25 ± 7%. For the same compound, the negative logarithm of the IC50 (pIC50) at human Y2R [4] is 7.80.
